{
  "source": "patent EP1960783B1",
  "about": "“REDUCTION OF NON-SPECIFIC BINDING IN ASSAYS” (Siemens Healthcare Diagnostics Inc., priority 2005, dated 2007)",
  "assay": "Blocking of non-specific binding by candidate blocker additives in the LOCI assay for CTNI (troponin) on the VISTA analyzer",
  "settings": "for % supression*: NSB 1 sample vs PBS control",
  "excerpt": "Samples from a local blood bank were screened to determine if they produced a response with the troponin assay. Any donor sample that produced a positive result with the troponin test was assumed to be a false positive. This was confirmed by testing all samples that gave positive responses with at least one commercially available reference method. For the results reported here, the test results were confirmed using the Dade Behring DIMENSION Rxl® troponin (CTNI) test. The false positive samples were further screened for known causes of false positivity. The primary root cause of false positive results is human antibodies that bind mouse antibodies, an interference known as \"HAMA\" (Human Anti-Mouse Antibodies). The screening process used to determine if samples have HAMA interference consists of adding known HAMA binders (also known as blocking agents) that are available commercially from Roche and Scantibodies. If a sample that gives a positive response becomes normal when HAMA binders are added to the sample, the sample is assumed to be a false positive due to HAMA. Some samples were not corrected by the addition of HAMA binders. These were used in the testing described in the following examples.\nAn assay for CTNI, described in \"Quantitation of Cardiac Markers by LOCI™ Technology\", R. Bauer, et al., (Clinical Chemistry 2004; 50(6 supplement): A5) was used for evaluation of the candidate blocker compounds. The reagents for doing this assay consist of an antibody coated acceptor latex (acceptor bead) that emits light when contacted by singlet oxygen, a biotinylated antibody, and a streptavidin coated donor latex that produces singlet oxygen when illuminated by light of wavelengths that are absorbed by a photosensitizer dye dissolved in the latex particles. The streptavidin of the donor latex was bound to the latex particles through a spacer of dextran with aldehyde linking groups. In the case of the acceptor beads, the antibody was connected to the particles through a linking group or spacer that results from a combination of aminodextran and dextranaldehyde. For both latex reagents, the excess aldehyde groups remaining after linkage of the proteins are reacted with carboxymethoxyamine to quench the aldehydes.\nThese reagents are packaged in FLEX® containers that serve as reservoirs for the VISTA™ automated clinical analyzer that is described in \"Development and Initial Performance of a New High-Volume Multi-Detector Analyzer: The DIMENSION VISTA™ Integrated System\", T. Evers, et al. (Clinical Chemistry 2004; 50(6 supplement)) A31. The test kits and the analyzer are available from Dade Behring Inc., Newark, DE, USA. Candidate blocking reagents (soluble protein-polysaccharide conjugates (preformed or formed in situ) that reduce or eliminate interference from sample components) were tested by adding them (or a precursor such as, e.g., dextran aldehyde) to the biotinylated antibody reagent in prototype FLEX® containers or in some cases directly to the sample. FLEX® containers are from Dade Behring Inc.\nEach test result shown in the tables below is the average of four test results. In general, the precision of the measurements was <2% CV for calibrators and for measurements of discrepant samples in those cases where effective blockers were used. The testing was done on different days with different instruments, so many control tests were needed to enable comparison of different sets of data.\nDextranaldehyde reacts with proteins to form Schiff's bases between the aldehyde functionality and the lysine amino groups of proteins thereby producing a conjugate. This reaction was accomplished by adding 5 mg/mL 500 kDa dextranaldehyde to the biotinylated antibody reagent of the CTNI FLEX® container, which contains 50 mg/mL of BSA in a pH 7.2 HEPES buffer with 1mg/mL 100-200 KDa dextran. […]",
  "key": {"[1]": {"settings": "Table 4, additive 1 mg/mL added to sample"}, "[2]": {"settings": "Table 4, additive 1 mg/mL added to calibrators and sample, held half an hour before testing"}, "[3]": {"settings": "Table 5 Run 2, additive 5 mg/mL in biotinylated antibody reagent"}, "[4]": {"settings": "Table 5 Run 1, additive 5 mg/mL in biotinylated antibody reagent"}},
  "data": [
    {"substance": "BSA conjugate formed in situ: conjugate formed by adding 5 mg/mL 500 kDa dextranaldehyde to reagent containing 50 mg/mL BSA", "values": [
      {"measurement": "blocking the nonspecific binding", "setting": "summary in words of Table 2, discrepant samples NSB 1-29", "result": "nearly bringing the falsely elevated results to the same level as the zero calibrator"},
      {"measurement": "blocking the interference", "setting": "summary in words of Table 7, compared with the carboxymethyloxime derivative of dexal", "result": "significantly more effective"}
    ]},
    {"substance": "100-200-Dexal-BSA-10: dextranaldehyde from 100-200 kDa dextran conjugated with BSA, 100 parts dextranaldehyde to 10 parts BSA", "values": [
      {"measurement": "% supression*", "setting": "[1]", "result": 98.2, "unit": "%"},
      {"measurement": "Test Result Counts Cal 0", "setting": "[2]", "result": "8,389 Counts"},
      {"measurement": "Test Result Counts Cal 8", "setting": "[2]", "result": "954,766 Counts"},
      {"measurement": "Test Result Counts NSB 1", "setting": "[2]", "result": "26,160 Counts"}
    ]},
    {"substance": "100-200-Dexal-ovalbumin-100: 100-200 kDa dextranaldehyde conjugated with ovalbumin, 100 parts to 100 parts", "values": [
      {"measurement": "% supression*", "setting": "[3]", "result": 95.93, "unit": "%"},
      {"measurement": "Test Result Counts Cal 0", "setting": "[3]", "result": "6,370 Counts"},
      {"measurement": "Test Result Counts Cal 8", "setting": "[3]", "result": "734,218 Counts"},
      {"measurement": "Test Result Counts NSB 1", "setting": "[3]", "result": "39,569 Counts"}
    ]},
    {"substance": "100-200-Dexal-BSA-50, second lot: 100-200 kDa dextranaldehyde conjugated with BSA, 100 parts to 50 parts", "values": [
      {"measurement": "% supression*", "setting": "[4]", "result": 100.00, "unit": "%"},
      {"measurement": "Test Result Counts Cal 0", "setting": "[4]", "result": "7,136 Counts"},
      {"measurement": "Test Result Counts Cal 8", "setting": "[4]", "result": "807,327 Counts"},
      {"measurement": "Test Result Counts NSB 1", "setting": "[4]", "result": "7,134 Counts"}
    ]},
    {"substance": "100-200-Dexal-BSA-50, first lot: 100-200 kDa dextranaldehyde conjugated with BSA, 100 parts to 50 parts", "values": [
      {"measurement": "% supression*", "setting": "[4]", "result": 99.95, "unit": "%"},
      {"measurement": "Test Result Counts Cal 0", "setting": "[4]", "result": "6,578 Counts"},
      {"measurement": "Test Result Counts Cal 8", "setting": "[4]", "result": "743,213 Counts"},
      {"measurement": "Test Result Counts NSB 1", "setting": "[4]", "result": "7,005 Counts"}
    ]},
    {"substance": "100-200-Dexal-BSA-100: 100-200 kDa dextranaldehyde conjugated with BSA, 100 parts to 100 parts", "values": [
      {"measurement": "% supression*", "setting": "[4]", "result": 99.97, "unit": "%"},
      {"measurement": "Test Result Counts Cal 0", "setting": "[4]", "result": "7,320 Counts"},
      {"measurement": "Test Result Counts Cal 8", "setting": "[4]", "result": "823,386 Counts"},
      {"measurement": "Test Result Counts NSB 1", "setting": "[4]", "result": "7,544 Counts"}
    ]},
    {"substance": "100-200-Dexal-BSA-30: dextranaldehyde prepared from 100-200 kDa dextran conjugated with BSA at 100 parts dextranaldehyde to 30 parts BSA", "values": [
      {"measurement": "% supression*", "setting": "[1]", "result": 99.7, "unit": "%"},
      {"measurement": "Test Result Counts Cal 0", "setting": "[2]", "result": "8,460 Counts"},
      {"measurement": "Test Result Counts Cal 8", "setting": "[2]", "result": "969,563 Counts"},
      {"measurement": "Test Result Counts NSB 1", "setting": "[2]", "result": "11,242 Counts"}
    ]},
    {"substance": "100-200-Dexat-ovalbumin-50: 100-200 kDa dextranaldehyde conjugated with ovalbumin, 100 parts to 50 parts", "values": [
      {"measurement": "% supression*", "setting": "[3]", "result": 99.26, "unit": "%"},
      {"measurement": "Test Result Counts Cal 0", "setting": "[3]", "result": "6,573 Counts"},
      {"measurement": "Test Result Counts Cal 8", "setting": "[3]", "result": "749,661 Counts"},
      {"measurement": "Test Result Counts NSB 1", "setting": "[3]", "result": "12,630 Counts"}
    ]}
  ]
}
